Assay results: PMC11009625, “Antibiotic class with potent in vivo activity targeting lipopolysaccharide synthesis in Gram-negative bacteria” (Proceedings of the National Academy of Sciences of the …, 2024)
≈ marks a conversion by molar mass, not a printed value. Read-outs that look alike come from different tables or passages of the source.

How the values were obtained:
Assay type in all cases: cell-based
[1] = test system: P. aeruginosa PAO1 and efflux-defective PAO750; assay: MIC, P. aeruginosa laboratory strains; conditions: Pseudomonas aeruginosa
Description: (§1) Minimum inhibitory concentration (MIC) values were determined according to the Clinical Laboratory Standards Institute guidelines. Frequency of resistance was determined by plating ~5 × 10^8 bacterial cells on agar-solidified media plates containing test compound at concentrations corresponding to four times the measured solid-media MIC of the strains. Colonies were counted after 24 h, restreaked onto media containing the same concentration of compound, and the MIC remeasured against the assayed compound. Genomic DNA from isolated clones was sequenced by paired-end sequencing on an Illumina MiSeq device. Complete experimental details available in SI Appendix. […]
Minimum inhibitory concentration (MIC) determination. Broth microdilution and agar dilution
MIC assays were conducted according to CLSI guidelines (M07-2012). Appropriate inoculation
suspension density was assessed using a Sensititre Nephelometer with a Sensititre 0.5
McFarland Standard. […]

E. coli (EN122) = assay: MIC of E. coli strain used in the in vivo efficacy studies; conditions: Escherichia coli
Description: (§2) Minimum inhibitory concentration (MIC) values were determined according to the Clinical Laboratory Standards Institute guidelines. Frequency of resistance was determined by plating ~5 × 10^8 bacterial cells on agar-solidified media plates containing test compound at concentrations corresponding to four times the measured solid-media MIC of the strains. Colonies were counted after 24 h, restreaked onto media containing the same concentration of compound, and the MIC remeasured against the assayed compound. Genomic DNA from isolated clones was sequenced by paired-end sequencing on an Illumina MiSeq device. Complete experimental details available in SI Appendix.
(§3) Lantmännen) and water. […]
(§4) Safety testing in mice. […] Mice were extensively observed and toxicity signs were scored after 0-2, 5, […]
(§5) Plasma sample analysis by UPLC/MS/MS. Concentrations of EBL-3599 and EBL-3647 in mouse blood plasma were measured by liquid chromatography tandem mass spectrometry (LC/MS/MS) in positive electrospray ionization (ESI+) in multi reaction monitoring (MRM) mode. […]
(§6) A sample volume of 20 μL was transferred into a plastic tube and mixed with 300μL acetonitrile/methanol mixture (3:1, v/v) to precipitate proteins. […] Bioanalysis of samples from each mouse were measured in duplicate and the results averaged. […]

K. pneumoniae (EN124) = assay: MIC of K. pneumoniae strain used in the in vivo efficacy studies; conditions: Klebsiella pneumoniae
Description: as §2, §3, §4, §5, §6

efflux-defective E. coli [2] = assay: MIC in phenotypic screen, tolC-inactivated E. coli; conditions: Escherichia coli, read-out: MIC against efflux-defective E. coli
From the text: In a search for new drug targets and starting points for antibiotic discovery, we initiated a series of phenotypic screens, based on publicly available chemical libraries and information gathered from the literature, focusing on compounds for which there was some evidence of Gram-negative antibacterial activity. In our initial screens, we evaluated activity against tolC-inactivated mutants of E. coli. The TolC protein is the outer membrane channel protein that is required for activity of several of the most important efflux pumps in E. coli, and inactivation of TolC essentially abolishes efflux pump activity ([27]). […] We successfully isolated resistant mutants against this compound. […] We resynthesized the AZ1 compound and confirmed the involvement of LpxH by WGS of selected resistant clones (SI Appendix, Table S1) ([24]–[26]). Both our own, and previously published mutations, map to the lipid X (enzymatic reaction product) binding site of LpxH (SI Appendix, Table S1 and Fig. S1A) ([23]). […]
Minimum inhibitory concentration (MIC) values were determined according to the Clinical Laboratory Standards Institute guidelines. Frequency of resistance was determined by plating ~5 × 10^8 bacterial cells on agar-solidified media plates containing test compound at concentrations corresponding to four times the measured solid-media MIC of the strains. […]

efflux-defective E. coli [3] = assay: Frequency of resistance, efflux-defective E. coli; conditions: not told
Description: as §1
Minimum inhibitory concentration (MIC) determination. […] Appropriate inoculation suspension density was assessed using a Sensititre Nephelometer with a Sensititre 0.5 […]
Frequency of Resistance. Frequency of resistance was assessed by spread plating between […] cfu of a freshly-grown culture of the strain of interest on plates containing a concentration of compound corresponding to 4 times the MIC of the strain (as determined by agar-dilution MIC). […] The frequency of resistance was determined by dividing the number of colonies obtained on the selective plates after 24 hours of growth by the calculated total population plated. […]

[4] = PAO1, read-out: MIC P. aeruginosa PAO1
[5] = PAO1, read-out: MIC P. aeruginosa PAO750

Structure (SMILES)	MIC [1, 4] [µg/mL]	MIC [1, 5] [µg/mL]	further results
Cc1cc(C#N)nc(N2CCN(S(=O)(=O)c3ccc(NC(=O)c4cc(CNCCCN)ccc4N(C)S(C)(=O)=O)cc3)CC2)n1.Cl.Cl [EBL-3599]	> 64	64	
Cc1cc(C#N)nc(N2CCN(S(=O)(=O)c3ccc(NC(=O)c4cc(CN5CC(CN)C5)ccc4N(C)S(C)(=O)=O)cc3)CC2)n1 [EBL-3647]	> 64	64 (≈ 95.8 µM)	MIC (E. coli (EN122)): 4 µg/mL; MIC (K. pneumoniae (EN124)): 4 µg/mL
CN(c1ccccc1C(=O)Nc1ccc(S(=O)(=O)N2CCCCC2)cc1)S(C)(=O)=O [JEDI-852]			MIC (efflux-defective E. coli [2]): 4 to 8 µg/mL (≈ 8.86 to 17.7 µM)
CN(c1ccccc1C(=O)Nc1ccc(S(=O)(=O)N2CCN(c3cccc(C(F)(F)F)c3)CC2)cc1)S(C)(=O)=O [JEDI-1444]			Frequency of resistance in efflux-defective E. coli (efflux-defective E. coli [3]): low frequency of resistance
